Measured values from patent US11844845B2, “Cell penetrating peptide, conjugate comprising same, and composition comprising conjugate” (GEMVAX & KAEL CO., LTD., priority 2012, dated 2023).

Tested on: HeLa cell
Assay: Cell penetration of pep(CPP)-FITC conjugate in HeLa cell line, flow cytometry (FACS)
Assay type: cell-based, Homo sapiens
Conditions: HeLa cells, 20 uM FITC-fused peptide, 37° C. for an hour, control = FITC only
Experimental: Homo sapiens cervix adenocarcinoma cell line as HeLa cell lines were purchased from ATCC (American Type Cell Culture). The cells were cultured in MEM supplemented with 10% fetal bovine serum (Invitrogen, USA), Earle's salts, non-essential amino acids, sodium pyruvate and 100 μg/ml penicillin and 10 units/ml streptomycin and cultured at 37° C., 5% CO2 incubator.
Flow cytometry and Confocal microscope analysis were performed to compare the between degree of cellular uptake of the cells were treated with SEQ ID NO: 2 to SEQ ID NO: 178, pep (CPP) and control.
The cell line was divided in a 6-well plate and cultured in a medium containing 10% fetal bovine serum (Invitrogen, USA), 100 μg/ml penicillin, 100 units/ml streptomycin at 37° C. 5% CO2 incubator for 12 hours. After washing the cell line with PBS, starvation was induced in a Minimum Essential Medium for an hour. 20 uM of each carrier peptide was treated and cultured at 37° C. for an hour. After repeating the step of washing the cells with PBS for three times, Trypsin-EDTA was treated form 10 mins at 37° C. to separate the carrier peptide on the outside of the cell. cells were collected with refrigerated PBS and centrifugation was performed to repeat the step of washing the cells for three times. After then, the cells were suspended in 0.5 ml of PBS containing 4% Paraformaldehyde and fluorescence of the cells was analyzed using FACS Calibur (Becton Dickinson). The cellular uptake aspect of control and various peptides combined with FITC was compared and analyzed by MFI (Mean Fluorescence Intensity).
Analysis results shown in FIGS. 2 to 29 are given in detail in Table 7 below.

Row | Substance | cellular uptake, MFI (Mean Fluorescence Intensity)
1 | REARPALLTSRLRFIPKPDGLRP (listed as Homo sapiens) [Pep-RIA-50] | 15.47 ± 0.73
2 | ARPALLT (listed as Homo sapiens) [Pep-RIA-116] | 11.32 ± 0.99
3 | EAR (listed as Homo sapiens) [Pep-RIA-90] | 9.77 ± 0.97
4 | LTSR (listed as Homo sapiens) [Pep-RIA-109] | 9.37 ± 0.31
5 | PALLTSRLR (listed as Homo sapiens) [Pep-RIA-132] | 13.72 ± 0.52
6 | EARP (listed as Homo sapiens) [Pep-RIA-89] | 9.13 ± 0.77
7 | RPALLTSRLRF (listed as Homo sapiens) [Pep-RIA-122] | 23.8 ± 1.54
8 | VRQHREARPALLTSRLRFIPKPDGLR (listed as Homo sapiens) [Pep-RIA-35] | 13.22 ± 0.34
9 | EARPALLTSRLRFIPKPD (listed as Homo sapiens) [Pep-RIA-65] | 12.84 ± 1.11
10 | EARPA (listed as Homo sapiens) [Pep-RIA-88] | 8.89 ± 0.61
11 | PALLTSRLRFIP (listed as Homo sapiens) [Pep-RIA-130] | 18.54 ± 1.64
12 | EARPALLTSRLRFIPKPDGLRPIVNMDY (listed as Homo sapiens) [Pep-RIA-75] | 26.21 ± 1.29
13 | EARPALLTSRLRF (listed as Homo sapiens) [Pep-RIA-80] | 14.7 ± 0.79
14 | SEAEVRQHREARPALLTSRLRFIPK (listed as Homo sapiens) [Pep-RIA-9] | 12.7 ± 0.25
15 | LLTSRL (listed as Homo sapiens) [Pep-RIA-108] | 14.59 ± 0.17
16 | EVRQHREARPALLTSRLRFIPKPDG (listed as Homo sapiens) [Pep-RIA-42] | 15.27 ± 1.65
17 | EARPALLTSRLRFI (listed as Homo sapiens) [Pep-RIA-79] | 10.73 ± 1.18
18 | ARPALLTS (listed as Homo sapiens) [Pep-RIA-115] | 12.13 ± 0.34
19 | ARPALLTSRLRFIPK (listed as Homo sapiens) [Pep-RIA-91] | 19.96 ± 0.51
20 | RLRFIPK (listed as Homo sapiens) [Pep-RIA-99] | 17.45 ± 0.19
21 | ARPALLTSRLR (listed as Homo sapiens) [Pep-RIA-112] | 15.96 ± 1.24
22 | LRELSEAEVRQHREARPALLTSRLRFIPK (listed as Homo sapiens) [Pep-RIA-13] | 15.37 ± 1.34
23 | PALLTSRLRF (listed as Homo sapiens) [Pep-RIA-106] | 18.41 ± 1.12
24 | PALL (listed as Homo sapiens) [Pep-RIA-137] | 10.71 ± 1.99
25 | EVRQHREARPALLTSRLRFIPKPDGL (listed as Homo sapiens) [Pep-RIA-43] | 15.34 ± 1.35
26 | RELSEAEVRQHREARPALLTSRLRFIPK (listed as Homo sapiens) [Pep-RIA-12] | 12.93 ± 0.18
27 | RQHREARPALLISRLRFIPKPD (RQHREARPALLTSRLRFIPKPD; listed as Homo sapiens) [Pep-RIA-25] | 17.41 ± 0.32
28 | EARPALLTSRLR (listed as Homo sapiens) [Pep-RIA-81] | 14.63 ± 0.22
